Experimental data as given in patent US11470844B2, “Vespidae wasp repellent” (KINP CO., LTD, priority 2015, dated 2022).

How the values were obtained:
[1] = system: Vespa simillima xanthoptera Cameron worker; assay: Black ball nest disturbance, Experiment 1; assay type: in vivo; conditions: previously attacked ball
Method: The experiment was also conducted with utilizing a nest of Vespa simillima xanthoptera Cameron in Kagawa Prefecture Kinbuchi Forest Park in Takamatsu City Kagawa Prefecture on Oct. 24, 2014. Since the nest was also built in the ground, the nest could not be found except for the entrance thereof.
As the above-described Example 2(1), the nest entrance was disturbed by vibrating the black ball in contact with the nest entrance for about 10 seconds. The total number of attacking worker could not be counted, since the number of the worker which attacked to the control black ball using distilled water was much larger than that of the control in the experiment for Vespa mandarinia and the worker moved very rapidly. Thus, the video image was stopped every 30 seconds from the end of the nest entrance disturbance and the number of the worker which alighted on the hemispherical surface of the black ball for attack was counted. During 120 seconds for the experiment, the workers continued to strongly attack to the black ball as the workers constantly flew to and alighted on the black ball for attack and the worker number was not decreased. Such an attack was continued even after the end of the experiment at which the tip of the rod was moved to a place 5 m or more away from the nest, and the attack was finally not observed after about 20 minutes passed from the experiment was finished. Then, 2-phenylethanol was sprayed on the black ball to which Vespa simillima xanthoptera attacked as the test liquid example and the nest entrance was disturbed using the black ball. Although the worker which tried to come close to the black ball was observed, even the closest worker changed the direction in the air 10 to 20 cm from the surface of the black ball and flew away, and no worker which flew to and alighted on the surface of the black ball was found.

Vespa mandarinia worker = assay: Black ball nest disturbance, Experiment 1 (ball with adsorbed alarm pheromone); assay type: in vivo; conditions: for total number of workers alighting on the black ball for attack: alarm pheromone adsorbed ball
Method: The experiment was conducted with utilizing a nest of Vespa mandarinia found in Kagawa Prefecture Kinbuchi Forest Park in Takamatsu City Kagawa Prefecture on Oct. 24, 2014. Since the nest was built in the ground, the nest could not be found except for the entrance thereof.
A vinyl ball of which diameter was 13 cm and which was coated with black lacquer was hung on the tip of a fishing rod having a length of 11 m. Hereinafter, the ball was abbreviated as “black ball”. After distilled water was sprayed on the entire surface, the vicinity of the nest entrance was disturbed by using the black ball. Specifically, the nest was disturbed by vibrating the black ball about 50 cm before the nest entrance in the air for about 10 seconds or vibrating the black ball in contact with the nest entrance for about 10 seconds. After the black ball was vibrated in the above-described conditions for about 10 seconds, the black ball was moved to the air of about 1 m before the nest entrance, and the behavior of the Vespa mandarinia worker against the black ball was shot and recorded for 2 minutes with a video camera. In the above condition, both of the black balls used in both conditions were attacked by the Vespa mandarinia workers and it is considered that the alarm pheromone was adsorbed on the black balls. Then, the black ball was kept away from the nest so that all the Vespa mandarinia workers were separated, 2-phenylethanol was sprayed on the entire surface, and the behavior of the workers against the black ball was similarly observed. The total number of workers alighting on the surface of the hemispherical side observable by the video image for attack during the vibration of the black ball was counted.

OCCc1ccccc1 [2-Phenylethanol, 2-phenylethanol]
number of worker alighted on hemispherical surface of black ball for attack ([1]; 30 s after disturbance): 0
number of worker alighted on hemispherical surface of black ball for attack ([1]; 60 s after disturbance): 0
number of worker alighted on hemispherical surface of black ball for attack ([1]; 90 s after disturbance): 0
number of worker alighted on hemispherical surface of black ball for attack ([1]; 120 s after disturbance): 0
total number of workers alighting on the black ball for attack (Vespa mandarinia worker; Vibration in contact with nest entrance): 0
total number of workers alighting on the black ball for attack (Vespa mandarinia worker; Vibration in the air before nest entrance): 0
distance from the surface of the black ball at which workers changed direction and flew away (Vespa mandarinia worker; in vivo): about 10 cm
